pIC50: −log10 of the molar value. Like-named read-outs stand apart in the source and are kept apart here.
Legend:
HDAC1 = HDAC1 (Homo sapiens (Human), UniProt Q13547); experiment: HDAC activity inhibition assay, HDAC1; format: biochemical
Method: (§1) The HDAC activity inhibition assay was performed as follows to determine the ability of a test compound to inhibit HDAC enzymatic activity. […] Following pre-incubation, Fluor-de-Lys™ substrate (Enzo Life Sciences, Plymouth Meeting, Pa., BML-KI104-0050) was added to a final concentration of 10 μM and plates were further incubated for 30 minutes at room temperature. […] IC50 values were calculated by using a sigmoidal dose-response (variable slope) equation in GraphPad Prism® 5 for Windows (GraphPad Software, La Jolla, Calif.).

HDAC2 = HDAC2 (Homo sapiens (Human), UniProt Q92769); experiment: HDAC activity inhibition assay, HDAC2; format: biochemical
Chain of HDAC2 (Q92769 whole entry): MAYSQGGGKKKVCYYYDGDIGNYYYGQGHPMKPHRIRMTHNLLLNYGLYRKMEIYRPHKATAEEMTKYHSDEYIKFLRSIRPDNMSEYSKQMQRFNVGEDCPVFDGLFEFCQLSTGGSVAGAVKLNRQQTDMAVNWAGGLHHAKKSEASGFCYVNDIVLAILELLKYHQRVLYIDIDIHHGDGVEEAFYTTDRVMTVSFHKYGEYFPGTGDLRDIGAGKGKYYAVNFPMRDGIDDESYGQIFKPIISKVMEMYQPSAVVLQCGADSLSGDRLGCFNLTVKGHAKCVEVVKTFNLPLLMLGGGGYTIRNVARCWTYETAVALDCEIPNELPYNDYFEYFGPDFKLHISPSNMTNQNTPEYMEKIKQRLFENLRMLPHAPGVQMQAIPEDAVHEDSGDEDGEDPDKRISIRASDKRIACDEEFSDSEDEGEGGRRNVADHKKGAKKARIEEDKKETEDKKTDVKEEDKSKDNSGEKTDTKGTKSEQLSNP
Method: as §1

HDAC3/NcoR2 = HDAC3/NcoR2 (Homo sapiens (Human), UniProt O15379); experiment: HDAC activity inhibition assay, HDAC3/NcoR2; format: biochemical
Chain of HDAC3/NcoR2 (O15379 whole entry): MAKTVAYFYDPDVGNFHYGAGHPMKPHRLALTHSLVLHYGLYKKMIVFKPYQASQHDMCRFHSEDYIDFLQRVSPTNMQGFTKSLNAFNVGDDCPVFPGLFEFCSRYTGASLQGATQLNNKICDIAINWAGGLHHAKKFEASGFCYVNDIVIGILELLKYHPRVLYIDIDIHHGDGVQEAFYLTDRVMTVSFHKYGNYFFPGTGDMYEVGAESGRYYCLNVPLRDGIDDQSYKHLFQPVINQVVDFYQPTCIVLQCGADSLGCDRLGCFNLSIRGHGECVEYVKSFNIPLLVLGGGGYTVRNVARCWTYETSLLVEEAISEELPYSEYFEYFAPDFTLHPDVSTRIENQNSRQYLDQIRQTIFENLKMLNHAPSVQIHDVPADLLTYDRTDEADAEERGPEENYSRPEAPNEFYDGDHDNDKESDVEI
Chain of HDAC3/NcoR2 (Q9Y618 395-489 partner): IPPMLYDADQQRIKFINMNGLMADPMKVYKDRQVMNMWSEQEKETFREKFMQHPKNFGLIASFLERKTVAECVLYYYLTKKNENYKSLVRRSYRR
Method: as §1

[1] = tested on: GM 15850(lymphoblastoid cells line) cells; experiment: In-cell deacetylase inhibition assay (DAC assay); format: cell-based; conditions: GM 15850 cells, 4 h incubation, read-out: 850 DAC (in-cell deacetylase inhibition IC50)
Method: Compound dilutions were made in 100% DMSO followed by parallel dilution in media with 2% DMSO. 10 μl of the compound dilutions were added to the cells to achieve the desired concentrations. The final concentration of DMSO in each well was 0.2%. The cells were incubated for 4 h at 37° C. with 5% CO2. After incubation, the cells were centrifuged down and the supernatant was removed. […] The reaction was stopped after 30 min incubation by addition of 50 μL developer (6 mg/mL trypsin in HDAC assay buffer). The reaction was allowed to develop for 30 min at room temperature and the fluorescence signal was detected using a fluorometer (Spectramax M2, Molecular Devices, Sunnyvale, Calif.) with excitation and emission wavelengths of 360 nm and 470 nm respectively. The data was fitted to a sigmoidal dose response equation with variable slope in GraphPad Prism 5.0 (GraphPad Software, La Jolla, Calif.) to determine IC50. Bottom and top of the curve were fixed to the average fluorescence response of control wells with no cells and cells but no compound respectively.

[2] = Acid stability determination; format: physicochemical; conditions: 100 μM in 0.01 M HCl, 50° C.
Method: A 100 μM solution of test compound was prepared by dilution of a 10 mM DMSO stock solution in a 0.01 M solution of HCl in deionized water. Immediately after mixing, an aliquot (100 μL) was sampled and analyzed by HPLC/UV. The area under the compound peak was determined and used as the time zero reference point. The remainder of the acid sample was incubated at 50° C. and samples were taken after 2, 4, and 24 hours of incubation. On a few occasions, samples were taken at 30 rather than 24 hours. These were analyzed by the same HPLC/UV method and the area of the peak corresponding to the test compound was measured. Percent remaining at a given time point was then calculated as the ratio of the area under the peak after incubation to that at time zero times 100. In those cases where a 30 hour time point was recorded, the percent remaining at 24 hours was obtained by interpolation of the percent remaining versus time curve assuming a unimolecular process, i.e. a monoexponential decay. Percent remaining after 24 hours incubation are presented in Tables 2 and 4 below, where A corresponds to more than 60%, B is between 40 and 60%, C covers 20 to 40% and D means less than 20%.

Frataxin (FXN) mRNA = experiment: Effect of HDAC inhibitors on frataxin (FXN) mRNA expression in Friedreich's ataxia patient primary lymphocytes; format: cell-based, human; conditions: for EC (2-fold FXN mRNA): Homo sapiens, Lymphocyte, Friedreich's ataxia patient primary lymphocytes, 48 hours, read-out: FXN 2x (concentration required for a 2-fold increase in FXN mRNA); for F × n > 2X (uM): Table 4, concentration for 2-fold increase in FXN mRNA
Method: Blood is collected from Friedreich's ataxia patient donors into tubes containing the anti-coagulant EDTA. Primary lymphocytes are isolated using Lymphocyte Separation Medium (MP Biomedicals, Solon, Ohio) following the manufacturer's instructions and including a few modifications made by Repligen. After a final wash in Phosphate Buffered Saline (PBS), the cells are distributed into a 6-well cell culture plate in cell growth medium. The test HDAC inhibitor compound is added to cells in a dose escalating manner (usually concentrations range from 1 to 10 μM) and 0.1% DMSO is added to one well of cells as a no treatment control. Cells are incubated for 48 hours at 37° C. in a CO2 incubator; cell counts are taken using a Countess automated cell counter (Invitrogen, Carlsbad, Calif.). Equivalent numbers of cells for all treatment conditions are pelleted by centrifugation and resuspended in cell lysis buffer. Total RNA is isolated from approximately 1×10^6 primary lymphocytes using a RNeasy Mini Kit (Qiagen, Valencia, Calif.), following the manufacturer's instructions and including an optional on-column DNAse digestion step. The isolation is performed either manually or using the QIAcube (Qiagen, Valencia, Calif.), an instrument that automates much of the isolation procedure. The RNA yield and concentration is determined using a Nanodrop spectrophotometer (Thermo Fisher Scientific, Waltham, Mass.) and depending on the RNA concentration, one of two protocols is used to measure frataxin (FXN) transcript levels. For samples containing at least 15 ng/μL RNA a TaqMan® Probe-based (Applied Biosystems, Carlsbad, Calif.) qRT-PCR method is used, while for samples containing less than 15 ng/μL RNA a SYBR Green qRT-PCR method is used. In the TaqMan® Probe-based method specific primer/probe pairs for FXN and GAPDH are multiplexed in each reaction. In the SYBR Green method FXN and GAPDH are amplified in separate reactions. In both methods each RNA sample is analyzed in triplicate (preferably) or duplicate (minimally) using a one-step qRT-PCR master mix that contains all the components necessary for cDNA synthesis and PCR amplification in a single, continuous reaction. After cycling is complete, MxPro Software (Agilent Technologies, Santa Clara, Calif.) is used to analyze the collected data and determine the relative amount of FXN mRNA compared to a control sample. An adaptive baseline method is used for baseline correction whereby an algorithm automatically selects the appropriate baseline cycles for each well and each dye. An amplification-based threshold is set and the corresponding threshold cycle, or Ct, is obtained for calculating target concentration. The Ct values for each target gene (FXN and GAPDH) for each replicate series are averaged. The amount of FXN (or GAPDH) in the sample is determined as the relative quantity to the calibrator where the calibrator sample is assigned an arbitrary quantity of 1. The following equation is used: Relative quantity to the calibrator=2^−ΔCt where ΔCt=(Ct_gene)unknown−(Ct_gene)calibrator, gene is either FXN or GAPDH, calibrator is a DMSO control sample, and unknown is a HDACi treated sample. The relative quantity of FXN is normalized to cell number and RNA input. Data is reported in Tables 2 and 4 below, where the concentration required for a 2-fold increase in FXN mRNA is reported as A if less than 5 μM, B if between 5 and 10 μM, C if greater than 10 μM.

Human Hepatocytes = experiment: Compound stability in hepatocytes; conditions: 5 μM
Method: To assess the stability and metabolism of RGFP compounds in hepatocytes. This assay was designed to evaluate the metabolism of RGFP compounds, following their incubation with human, monkey, dog and rat hepatocytes by monitoring either parent drug disappearance or metabolite appearance using HPLC.
Procedure: • Turn on the water-bath heater to 37° C. • Take out the KHB buffer and make sure it is at room temp before use • Prepare 2.5 mM concentration of RGFP compound in DMSO stock • Add 10 μL of above DMSO stock to 2490 μL KHB buffer; final concentration of RGFP compound will be 10 μM • Pre-warm 45 ml InVitro HT Medium to 37° C. in a sterile 50 ml conical tube • Add 1.0 mL Torpedo Antibiotic Mix per 45 mL InVitro HT medium • Transfer 13 mL of warm HT medium with Antibiotic Mix into a 15 mL conical tube. • Carefully remove the hepatocyte vials from liquid nitrogen (liquid phase). • Immediately immerse the vial into a 37° C. water bath. Shake gently until the ice melts entirely. […] Loosen the cell pellet by gently swirling the centrifuge tube • Transfer 100 μL of above solution to a different tube and add 900 μL of KHB buffer to count the cells • Determine the total cell count and the number of viable cells using the Trypan Blue exclusion method • Once you obtain the cell count, multiply the number by 10 (attributing to the dilution factor) • Now add required volume of KHB buffer to the tube containing hepatocytes such that the final count will be 2 million cells/mL • Dispense 50 μL of 2 million cells/ml to a 96 well plate and then add 50 μl of DMSO stock to respective wells (such that, the concentration of RGFP compounds is 5 μM and number of cells are 100000 in each well) • Place the plates on a shaker in a 37° C. incubator with 5% CO2 • Separate plates for each time point are advisable (Time points: 0 h, 1 h, 2 h, and 6 h) • After each time point, add 100 μL of quenching solution. • Quenching solution is an acetonitrile solution containing RGFP531 (10 μM) internal standard, 0.1% formic acid and phenylglyoxol (400 μM). The formic acid and phenylglyoxal is used for the identification and quantification of OPD as mentioned above. • Pipette up and down a few times to ensure a complete stop of reaction • Transfer all the solution into a 1.5 ml tube, vortex thoroughly, and centrifuge at 14000 RPM at 4° C. for 5 minutes to precipitate cell debris
Transfer the 150 μL of supernatant to vials for analysis using HPLC

[3] = Brain penetration studies; conditions: Table 4; mice; Cmax(brain)/Cmax(plasma)
Method: Test compounds were prepared at either 0.5 mg/ml or 5 mg/ml in 30% hydroxypropyl-β-cyclodextrin, 100 mM sodium acetate pH 5.5, 5% DMSO. C57/BL6/J mice were dosed s.c. at 5 mg/kg or 50 mg/kg, or i.v. at 5 mg/kg. Animals were euthanized at pre-dose, 5, 15, 30 min, 1, 2 and 4 hours post-dose and plasma and brain obtained. Three animals per dose per time points were used. The levels of compound in the plasma and brain were determined by standard LC/MS/MS methods. Brain/plasma ratio (BPR) was calculated as the ratio of the Cmax(brain)/Cmax(plasma).

[4] = Table 1, 2 hours pre-incubation

Chain of HDAC1 (Q13547 whole entry): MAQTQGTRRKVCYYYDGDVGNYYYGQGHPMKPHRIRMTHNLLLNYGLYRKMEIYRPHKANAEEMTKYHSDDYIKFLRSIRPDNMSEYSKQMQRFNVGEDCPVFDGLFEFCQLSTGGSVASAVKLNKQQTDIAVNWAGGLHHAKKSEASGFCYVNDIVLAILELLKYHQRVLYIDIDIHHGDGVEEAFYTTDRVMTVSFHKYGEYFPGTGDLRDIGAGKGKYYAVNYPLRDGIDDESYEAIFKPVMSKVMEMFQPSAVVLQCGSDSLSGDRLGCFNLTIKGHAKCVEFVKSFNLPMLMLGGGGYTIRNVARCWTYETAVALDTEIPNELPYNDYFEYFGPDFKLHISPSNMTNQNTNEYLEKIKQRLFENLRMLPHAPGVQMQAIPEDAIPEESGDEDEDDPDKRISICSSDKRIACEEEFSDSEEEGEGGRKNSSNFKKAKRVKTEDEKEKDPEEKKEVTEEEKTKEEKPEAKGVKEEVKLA

pIC50 (HDAC1; [4]) | pIC50 (HDAC2; [4]) | pIC50 (HDAC3/NcoR2; [4]) | acid stability (percent remaining after 24 hours incubation) [2] | pIC50 (HDAC1; Table 4) | pIC50 (HDAC2; Table 4) | pIC50 (HDAC3/NcoR2; Table 4) | % left 6 h Hum (Human Hepatocytes) | BPR [3] | SMILES | EC (2-fold FXN mRNA) (Frataxin (FXN) mRNA) [µM] | other results
 |  |  |  |  |  |  |  |  | Cn1cc(/C=C/C(=O)Nc2cc(F)ccc2N)cn1 [C3] |  | pIC50 (HDAC1): 5.30 to 6.00; pIC50 (HDAC2): 5.30 to 6.00; pIC50 (HDAC3/NcoR2): > 6.00; pIC50 [1]: < 4.70
> 6.00 | > 6.00 | > 6.00 | A (A corresponds to more than 60%) |  |  |  |  |  | Nc1ccccc1NC(=O)/C=C/c1cnn(CCOc2ccccc2)c1 [D3, (E)-N-(2-aminophenyl)-3-(1-(2-phenoxyethyl)-1H-pyrazol-4-yl)acrylamide] | 5 to 10 | 
> 6.00 | 5.30 to 6.00 | > 6.00 | A (A corresponds to more than 60%) |  |  |  |  |  | Nc1ccccc1NC(=O)/C=C/c1cnn(Cc2ccccc2)c1 [D4] | > 10 | 
> 6.00 | 5.30 to 6.00 | > 6.00 | B (B is between 40 and 60%) |  |  |  |  |  | Nc1ccccc1NC(=O)/C=C/c1cnn(CCc2ccccc2)c1 [D7] | 5 to 10 | 
> 6.00 | > 6.00 | > 6.00 | A (A corresponds to more than 60%) |  |  |  |  |  | Nc1ccccc1NC(=O)/C=C/c1cnn(CCCCc2ccccc2)c1 [D9] | < 5 | 
> 6.00 | > 6.00 | > 6.00 | B (B is between 40 and 60%) |  |  |  |  |  | Nc1ccccc1NC(=O)/C=C/c1cnn(CCOCc2ccccc2)c1 [D14] | 5 to 10 | 
> 6.00 | > 6.00 | > 6.00 | B (B is between 40 and 60%) |  |  |  |  |  | Nc1ccccc1NC(=O)c1ccc(C=C2CCN(Cc3cccnc3)CC2)cc1 [F2] | < 5 | 
> 6.00 | > 6.00 | > 6.00 | B (B is between 40 and 60%) |  |  |  |  |  | Nc1ccccc1NC(=O)c1ccc(C=C2CN(Cc3ccc4cc[nH]c4c3)C2)cc1 [F3] | < 5 | 
> 6.00 | > 6.00 | > 6.00 |  | > 6.00 | > 6.00 | > 6.00 | C (30%>C>10%) |  | Nc1ccccc1NC(=O)c1ccc(C=C2CCN(Cc3cccnc3)CC2)c(Cl)c1 [F7] |  | 
 |  |  |  | > 6.00 |  | > 6.00 | IA (IA<10%) |  | Nc1ccccc1NC(=O)c1ccc(C=C2COC2)cc1F [F9] |  | 
 |  |  |  | > 6.00 | > 6.00 | > 6.00 | A (50%<A) | A (A is greater than 1) | Nc1ccccc1NC(=O)c1ccc(C=C2CN(CC3CC3)C2)cc1 [F12] |  | F × n > 2X (uM) (Frataxin (FXN) mRNA): A (A if less than 5 μM)
 |  |  |  | > 6.00 | > 6.00 | > 6.00 | B (50%>B>30%) | A (A is greater than 1) | Nc1ccccc1NC(=O)c1ccc(C=C2CCN(CC3CC3)CC2)cc1 [F13] |  | 
 |  |  |  | > 6.00 | > 6.00 | > 6.00 | C (30%>C>10%) | A (A is greater than 1) | CC(C)(C)CN1CCC(=Cc2ccc(C(=O)Nc3ccccc3N)cc2)CC1 [F14] |  | F × n > 2X (uM) (Frataxin (FXN) mRNA): A (A if less than 5 μM)
 |  |  |  | > 6.00 | > 6.00 | > 6.00 | A (50%<A) | A (A is greater than 1) | CC(C)(O)CN1CCC(=Cc2ccc(C(=O)Nc3ccccc3N)cc2)CC1 [F15] |  | F × n > 2X (uM) (Frataxin (FXN) mRNA): A (A if less than 5 μM)
 |  |  |  | > 6.00 | > 6.00 | > 6.00 | C (30%>C>10%) |  | Cc1cccc(CN2CC(=Cc3ccc(C(=O)Nc4ccccc4N)cc3)C2)n1 [F16] |  | 
 |  |  |  | > 6.00 | > 6.00 | > 6.00 | C (30%>C>10%) |  | Nc1ccccc1NC(=O)c1ccc(C=C2CN(Cc3ccccc3)C2)cc1 [F17] |  | 
 |  |  |  | > 6.00 | > 6.00 | > 6.00 | C (30%>C>10%) |  | Nc1ccccc1NC(=O)c1ccc(C=C2CN(Cc3cccnc3)C2)cc1 [F18] |  | 
 |  |  |  | > 6.00 | 5.30 to 6.00 | > 6.00 | A (50%<A) |  | CC(C)(O)CN1CC(=Cc2ccc(C(=O)Nc3ccccc3N)cc2)C1 [F19] |  | 
 |  |  |  | 5.30 to 6.00 | 5.30 to 6.00 | > 6.00 | A (50%<A) |  | Nc1cc(F)ccc1NC(=O)c1ccc(C=C2CN(CC3CC3)C2)cc1 [F20] |  | 

SMILES | pIC50 (HDAC1; [4]) | pIC50 (HDAC2; [4]) | pIC50 (HDAC3/NcoR2; [4]) | acid stability (percent remaining after 24 hours incubation) [2] | pIC50 (HDAC1; Table 4) | pIC50 (HDAC2; Table 4) | pIC50 (HDAC3/NcoR2; Table 4) | % left 6 h Hum (Human Hepatocytes) | BPR [3] | EC (2-fold FXN mRNA) (Frataxin (FXN) mRNA) [µM] | other results
CN1C2CCC1CC(=Cc1ccc(C(=O)Nc3ccccc3N)cc1Cl)C2 [F8] |  |  |  |  | > 6.00 | > 6.00 | > 6.00 |  | C (C is 0.2 to 0.5) |  | 
Nc1ccccc1NC(=O)c1ccc(C=C2CN(CC3CC3)C2)c(Cl)c1 [F10] |  |  |  |  |  |  |  | B (50%>B>30%) | A (A is greater than 1) |  | 
Nc1ccccc1NC(=O)c1ccc(C=C2COC2)c(Cl)c1 [F11] |  |  |  |  | > 6.00 |  | > 6.00 | C (30%>C>10%) | A (A is greater than 1) |  | 
CN1CCC(Cn2cc(/C=C/C(=O)Nc3ccccc3N)cn2)CC1 [G1, (E)-N-(2-aminophenyl)-3-(1-((1-methylpiperidin-4-yl)methyl)-1H-pyrazol-4-yl)acrylamide] | 5.30 to 6.00 | 5.30 to 6.00 | > 6.00 |  |  |  |  |  |  |  | pIC50 ([1]; Homo sapiens, GM15850): 5.30 to 6.00
